Experimental data: ChEMBL document CHEMBL1122452, “Mitomycin C analogues with secondary amines at position 7” (J Med Chem, 1983)

Columns and labels:
P388 [1] = assay: Optimal dose required for antitumor activity against P-388 murine leukemia cells in mice.; assay type: functional, Mus musculus
P388 [2] = assay: Maximum % T/C against P-388 murine leukemia cells in mice.; assay type: functional, Mus musculus
P388 [3] = assay: Maximum % T/C with mitomycin C against P-388 murine leukemia cells in mice.; assay type: functional, Mus musculus
P388 [4] = assay: Minimum effective dose required for antitumor activity against P-388 murine leukemia cells in mice.; assay type: functional; conditions: Mus musculus, read-out: MED
[5] = E1/2 value related to the saturated calomal electrode.; assay type: ADME; design: unit not given here
P388 [6] = assay: Leukopenia % change in WBC at optimal dose on 3rd day.; assay type: functional, Mus musculus
B16 [7] = assay: Tumor free survivors on 62nd day after ip administration of a dose of 6 mg/kg/day in B-16 melanoma in mice; out of 10; assay type: functional, Mus musculus; conditions: route intraperitoneal
B16 [8] = assay: Median survival time (% T/C) after ip administration of a dose of 6 mg/kg/day in B-16 melanoma in mice; assay type: functional, Mus musculus; conditions: route intraperitoneal
B16 [9] = assay: Tumor free survivors on 62nd day after ip administration of a dose of 3 mg/kg/day in B-16 melanoma in mice; assay type: functional, Mus musculus; conditions: route intraperitoneal
B16 [10] = assay: Tumor free survivors on 62nd day after ip administration of a dose of 2 mg/kg/day in B-16 melanoma in mice; assay type: functional, Mus musculus; conditions: route intraperitoneal
B16 [11] = assay: Average weight change after ip administration of a dose of 6 mg/kg/day in B-16 melanoma in mice; assay type: functional, Mus musculus; conditions: route intraperitoneal
B16 [12] = assay: Tumor free survivors on 62nd day after ip administration of a dose of 1 mg/kg/day in B-16 melanoma in mice; assay type: functional, Mus musculus; conditions: route intraperitoneal
B16 [13] = assay: Average weight change after ip administration of a dose of 3 mg/kg/day in B-16 melanoma in mice; assay type: functional, Mus musculus; conditions: route intraperitoneal
B16 [14] = assay: Median survival time (% T/C) after ip administration of a dose of 2 mg/kg/day in B-16 melanoma in mice; assay type: functional, Mus musculus; conditions: route intraperitoneal
B16 [15] = assay: Median survival time (% T/C) after ip administration of a dose of 3 mg/kg/day in B-16 melanoma in mice; assay type: functional, Mus musculus; conditions: route intraperitoneal
B16 [16] = assay: Median survival time (% T/C) after ip administration of a dose of 4 mg/kg/day in B-16 melanoma in mice; assay type: functional, Mus musculus; conditions: route intraperitoneal
B16 [17] = assay: Median survival time (% T/C) after ip administration of a dose of 1 mg/kg/day in B-16 melanoma in mice; assay type: functional, Mus musculus; conditions: route intraperitoneal
B16 [18] = assay: Tumor free survivors on 62nd day after ip administration of a dose of 4 mg/kg/day in B-16 melanoma in mice; out of 10; assay type: functional, Mus musculus; conditions: route intraperitoneal
B16 [19] = assay: Average weight change after ip administration of a dose of 4 mg/kg/day in B-16 melanoma in mice; assay type: functional, Mus musculus; conditions: route intraperitoneal
B16 [20] = assay: Average weight change after ip administration of a dose of 1 mg/kg/day in B-16 melanoma in mice; assay type: functional, Mus musculus; conditions: route intraperitoneal
B16 [21] = assay: Average weight change after ip administration of a dose of 2 mg/kg/day in B-16 melanoma in mice; assay type: functional, Mus musculus; conditions: route intraperitoneal
B16 [22] = assay: Tumor free survivors on 62nd day after ip administration of a dose of 4 mg/kg/day in B-16 melanoma in mice; assay type: functional, Mus musculus; conditions: route intraperitoneal
B16 [23] = assay: Median survival time (% T/C) after ip administration of a dose of 4 mg/kg/day inB-16 melanoma in mice; assay type: functional, Mus musculus; conditions: route intraperitoneal

COC12[C@@H]3N[C@@H]3CN1C1=C(C(=O)C(N3CCc4ccccc43)=C(C)C1=O)[C@@H]2COC(N)=O (some centres not stated)
Dose (P388 [1]): 12.8 mg/kg | T/C (P388 [2]): 150% | T/C (P388 [3]): 288% | minimal effective dose (P388 [4]): 0.8 mg/kg

COC12[C@@H]3N[C@@H]3CN1C1=C(C(=O)C(N(C)C)=C(C)C1=O)[C@@H]2COC(N)=O (some centres not stated)
Dose (P388 [1]): 25.6 mg/kg | T/C (P388 [2]): 238% | T/C (P388 [3]): 325% | minimal effective dose (P388 [4]): 0.2 mg/kg

COC12[C@@H]3N[C@@H]3CN1C1=C(C(=O)C(N(C)CCN(C)C)=C(C)C1=O)[C@@H]2COC(N)=O (some centres not stated)
Dose (P388 [1]): 25.6 mg/kg | E1/2 [5]: 0.33 | T/C (P388 [2]): 267% | T/C (P388 [3]): 211% | minimal effective dose (P388 [4]): 0.8 mg/kg

COC12[C@@H]3N[C@@H]3CN1C1=C(C(=O)C(N3CCSCC3)=C(C)C1=O)[C@@H]2COC(N)=O (some centres not stated)
Change in WBC (P388 [6]): 44% | Dose (P388 [1]): 3.2 mg/kg | T/C (P388 [2]): 211% | T/C (P388 [3]): 178% | minimal effective dose (P388 [4]): 0.4 mg/kg

COC12[C@@H]3N[C@@H]3CN1C1=C(C(=O)C(N3CC3C)=C(C)C1=O)[C@@H]2COC(N)=O (some centres not stated)
Change in WBC (P388 [6]): 24% | Dose (P388 [1]): 3.2 mg/kg | E1/2 [5]: 0.32 | T/C (P388 [2]): 233% | T/C (P388 [3]): 250% | minimal effective dose (P388 [4]): 0.1 mg/kg

COC12[C@@H]3N[C@@H]3CN1C1=C(C(=O)C(N3CCN(c4ccc(C(C)=O)cc4)CC3)=C(C)C1=O)[C@@H]2COC(N)=O (some centres not stated)
Change in WBC (P388 [6]): 40% | Dose (P388 [1]): 3.2 mg/kg | T/C (P388 [2]): 161% | T/C (P388 [3]): 200% | minimal effective dose (P388 [4]): 0.4 mg/kg

COC12[C@@H]3N[C@@H]3CN1C1=C(C(=O)C(N3CCC(O)C3)=C(C)C1=O)[C@@H]2COC(N)=O (some centres not stated)
Dose (P388 [1]): 25.6 mg/kg | E1/2 [5]: 0.37 | T/C (P388 [2]): 163% | T/C (P388 [3]): 219% | minimal effective dose (P388 [4]): 0.8 mg/kg

COC12[C@@H]3N[C@@H]3CN1C1=C(C(=O)C(N3CCN(C)CC3)=C(C)C1=O)[C@@H]2COC(N)=O (some centres not stated)
Change in WBC (P388 [6]): 34% | Dose (P388 [1]): 3.2 mg/kg | E1/2 [5]: 0.24 | T/C (P388 [2]): 261% | T/C (P388 [3]): 183% | minimal effective dose (P388 [4]): 0.2 mg/kg

COC12[C@@H]3N[C@@H]3CN1C1=C(C(=O)C(N3CCCCC3)=C(C)C1=O)[C@@H]2COC(N)=O (some centres not stated)
Dose (P388 [1]): 12.8 mg/kg | E1/2 [5]: 0.27 | T/C (P388 [2]): 183% | T/C (P388 [3]): 322% | minimal effective dose (P388 [4]): 0.2 mg/kg

COC12[C@@H]3N[C@@H]3CN1C1=C(C(=O)C(N3CC=CC3)=C(C)C1=O)[C@@H]2COC(N)=O (some centres not stated)
Change in WBC (P388 [6]): -13% | Dose (P388 [1]): 12.8 mg/kg | T/C (P388 [2]): 216% | T/C (P388 [3]): 268% | minimal effective dose (P388 [4]): 0.2 mg/kg

COC12[C@@H]3N[C@@H]3CN1C1=C(C(=O)C(N3CCN(C=O)CC3)=C(C)C1=O)[C@@H]2COC(N)=O (some centres not stated)
Cures (B16 [7]): 2 | T/C (B16 [8]): 88% | Change in WBC (P388 [6]): 16% | Cures (B16 [9]): 6 | Cures (B16 [10]): 5 | Average weight change (B16 [11]): -0.7 g | Cures (B16 [12]): 1 | Average weight change (B16 [13]): -0.4 g | T/C (B16 [14]): 275% | Dose (P388 [1]): 6.4 mg/kg | T/C (B16 [15]): 310% | E1/2 [5]: 0.23 | T/C (P388 [2]): 294% | T/C (P388 [3]): 224% | T/C (B16 [16]): 310% | T/C (B16 [17]): 210% | Cures (B16 [18]): 6 | Average weight change (B16 [19]): -1 g | Average weight change (B16 [20]): 0 g | minimal effective dose (P388 [4]): 0.2 mg/kg | Average weight change (B16 [21]): -0.1 g

COC12[C@@H]3N[C@@H]3CN1C1=C(C(=O)C(N3CCCC(C)C3)=C(C)C1=O)[C@@H]2COC(N)=O (some centres not stated)
Dose (P388 [1]): 25.6 mg/kg | T/C (P388 [2]): 238% | T/C (P388 [3]): 319% | minimal effective dose (P388 [4]): 0.2 mg/kg

COC12[C@@H]3N[C@@H]3CN1C1=C(C(=O)C(N3CCC(O)(O)CC3)=C(C)C1=O)[C@@H]2COC(N)=O (some centres not stated)
Dose (P388 [1]): 25.6 mg/kg | E1/2 [5]: 0.28 | T/C (P388 [2]): 231% | T/C (P388 [3]): 219% | minimal effective dose (P388 [4]): 0.2 mg/kg

CO[C@@]12[C@H](COC(N)=O)C3=C(C(=O)C(C)=C(N)C3=O)N1C[C@@H]1N[C@@H]12 [MITOMYCIN]
Cures (B16 [22]): 0 | Change in WBC (P388 [6]): -42% | Cures (B16 [9]): 0 | Cures (B16 [10]): 0 | T/C (B16 [23]): 200% | Cures (B16 [12]): 0 | Average weight change (B16 [13]): -0.1 g | T/C (B16 [14]): 152% | Dose (P388 [1]): 3.2 mg/kg | T/C (B16 [15]): 165% | E1/2 [5]: -0.45 | T/C (P388 [2]): 161% | T/C (B16 [17]): 155% | Average weight change (B16 [19]): -0.1 g | Average weight change (B16 [20]): 0.2 g | minimal effective dose (P388 [4]): 0.2 mg/kg | Average weight change (B16 [21]): 0.5 g
